Columns and labels:
[1] = molecular target: T1, recombinant human FUCA1 (human lysosomal α-L-fucosidase) (Homo sapiens, UniProt P04066); assay: In vitro inhibition of FUCA1 activity, 4-methylumbelliferyl-α-L-fucopyranoside substrate, lysates of COS-7 cells over-expressing enzyme; format: biochemical
T1 construct: expressed in transfected cells; host or cells: COS-7
T1 sequence (P04066 32-466): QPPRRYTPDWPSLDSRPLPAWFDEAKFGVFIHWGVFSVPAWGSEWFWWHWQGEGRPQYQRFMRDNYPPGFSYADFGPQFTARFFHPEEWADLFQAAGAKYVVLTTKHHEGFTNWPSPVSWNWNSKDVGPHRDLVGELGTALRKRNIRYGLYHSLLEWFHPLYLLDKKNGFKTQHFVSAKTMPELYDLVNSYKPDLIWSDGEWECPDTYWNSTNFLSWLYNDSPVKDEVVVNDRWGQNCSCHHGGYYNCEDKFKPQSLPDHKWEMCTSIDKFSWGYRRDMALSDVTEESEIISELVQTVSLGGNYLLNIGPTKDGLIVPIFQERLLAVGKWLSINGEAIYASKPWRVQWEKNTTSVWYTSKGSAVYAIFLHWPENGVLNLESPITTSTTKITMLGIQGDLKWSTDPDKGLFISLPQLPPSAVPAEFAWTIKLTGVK
Description: Having the cyclophellitol aziridine inhibitors and probes in hand, we determined their inhibitory potency towards the human lysosomal α-L-fucosidase, FUCA1.
The enzymatic activity of α-L-fucosidase was assayed at 37 °C by incubating with 1.5 mM 4-methylumbelliferyl-α-L-fucopyranoside as substrate in 150 mM McIlvaine buffer, pH 4.5, supplemented with 0.1% (w/v) BSA. […] The reaction was quenched by adding excess NaOH–glycine (pH 10.6), after which fluorescence was measured with a fluorimeter LS55 (Perkin Elmer) using λEX 366 nm and λEM 445 nm.

[2] = molecular target: T2, FUCA1 (recombinant human GH29 α-L-fucosidase per table title) (Homo sapiens, UniProt P04066); assay: In situ inhibition of FUCA1 in living fibroblasts; format: cell-based
T2 construct: endogenous in cells; host or cells: fibroblasts
T2 sequence (P04066 32-466): T1 sequence (P04066 32-466)

[3] = tested on: purified α-L-fucosidase from Bacteroides thetaiotaomicron; assay: In vitro ABP labeling of purified bacterial α-L-fucosidase; format: binding
Description: All pre-incubations and ABP labeling-reactions occurred for 30 min at 37 °C. Total lysates (50 μg), medium (500 μg) or purified protein preparations (5 μg) were labeled with 1 μM JJB256 1 or JJB244 2, dissolved in 150 mM McIlvaine buffer, pH 4.5, incubating for 30 min at 37 °C. For ABPP, protein preparations were pre-incubated with compounds 4 (100 μM), 6 (100 μM), 7–13 (1 or 5 mM, specified in the main text) prior to the addition of 100 nM fluorescent ABPs. Influence of pH on ABP labeling involved pre-incubation at pH 3–10 prior to addition of 100 nM ABP 1. Direct labeling of retaining β-glucosidases occurred at pH 5.0 in conjunction with 100 nM ABP JJB75. Samples were then denatured with 5× Laemmli buffer (50% (v/v) 1 M Tris–HCl, pH 6.8, 50% (v/v) 100% glycerol, 10% (w/v) DTT, 10% (w/v) SDS, 0.01% (w/v) bromophenol blue), boiled for 4 min at 100 °C, and separated by gel electrophoresis on 10% (w/v) SDS-PAGE gels running continuously at 90 V.[13],[14] Wet slab-gels were scanned on fluorescence using a Typhoon Variable Mode Imager (Amersham Biosciences) using λEX 488 nm and λEM 520 nm (band pass filter 40 nm) for green fluorescent JJB256 1 and λEX 532 nm and λEM 610 nM (band pass filter 30 nm) for red fluorescent JJB244 2 and JJB75.

FUCA1 = molecular target: T3, FUCA1 (Homo sapiens, UniProt P04066); assay: In vitro ABP labeling of FUCA1 overexpressed in COS cells; format: binding
T3 sequence (P04066 32-466): T1 sequence (P04066 32-466)
Text: Subsequently, we exposed lysates of spleens from a healthy human individual and a patient suffering from Gaucher disease to ABP 1.
The coding sequences of H. sapiens FUCA1 (NCBI reference sequence XM_005245821.1, using forward primer 5′-[…]-3′ and reverse primer 5′-[…]-3′), and of H. sapiens FUCA2 (NCBI reference sequence NM_032020.4, using forward primer 5′-[…] […]-3′ and reverse primer 5′-[…] […]-3′) were amplified via PCR and cloned into pDNOR-221 and thereafter sub-cloned in pcDNA™-DEST40 vector using the Gateway system (Invitrogen). Correctness of all constructs was verified by sequencing. Confluent COS-7 cells were transfected with pcDNA3.1 empty vector (Mock) or the vector with described insert in conjunction with FuGENE (Roche).
All pre-incubations and ABP labeling-reactions occurred for 30 min at 37 °C. Total lysates (50 μg), medium (500 μg) or purified protein preparations (5 μg) were labeled with 1 μM JJB256 1 or JJB244 2, dissolved in 150 mM McIlvaine buffer, pH 4.5, incubating for 30 min at 37 °C. […] Wet slab-gels were scanned on fluorescence using a Typhoon Variable Mode Imager (Amersham Biosciences) using λEX 488 nm and λEM 520 nm (band pass filter 40 nm) for green fluorescent JJB256 1 and λEX 532 nm and λEM 610 nM (band pass filter 30 nm) for red fluorescent JJB244 2 and JJB75.

- IC50 [1]: 6.9 ± 0.8 nM
- IC50 [2]: 28.9 ± 4.4 nM
- labeling of enzyme [3]: efficiently labels
- labeling of enzyme (FUCA1): labeled
SMILES: CC1=CC(C)=[N+]2C1=C(CCCCc1cn(CCCCCCCC(=O)N3[C@@H]4[C@@H](C)[C@@H](O)[C@@H](O)[C@H](O)[C@@H]43)nn1)c1c(C)cc(C)n1[B-]2(F)F [compound 1]
